From the PolyMetriX glass transition set come the findings set out here.

± gives the standard deviation of the reports.

Turning to `*C(*)C(=O)OC(C)C` (repeat unit), the glass transition temperature was determined as 70.00 °C.
In the case of `*C(*)C(=O)OC1CCCCC1` (repeat unit), the glass transition temperature was 140.00 °C.
The result for `*C(*)C(=O)OCCC` (repeat unit) reads -15.00 °C.
Compound `*C(=O)c1ccc2c(c1)C(=O)N(c1c(C)cc(Cc3cc(C)c(N4C(=O)c5ccc(*)cc5C4=O)c(C)c3)cc1C)C2=O` (repeat unit) had a glass transition temperature of 320.00 ± 16 °C.
The result for `*C(=O)c1ccc2c(c1)C(=O)N(c1ccc(C)c(N3C(=O)c4ccc(*)cc4C3=O)c1)C2=O` (repeat unit) reads 317.2 ± 3.2 °C.
The result for `*C(=O)c1ccc2c(c1)C(=O)N(c1ccc(Cc3ccc(N4C(=O)c5ccc(*)cc5C4=O)cc3)cc1)C2=O` (repeat unit) reads 292.50 ± 9.3 °C.
`*C(C)C(*)C(=O)OC12CC3CC(CC(C3)C1)C2` (repeat unit) showed a glass transition temperature of 236.50 °C.
The result for `*C(F)(F)C(*)(F)C(F)(F)C(F)(F)C(F)(F)C(F)(F)C(F)(F)F` (repeat unit) reads 232.50 °C.
Regarding `*C(F)(F)C(*)(F)OC(F)(F)F` (repeat unit), the glass transition temperature is -5.00 °C.
The result for `*C(F)(F)C(*)(F)c1ccccc1` (repeat unit) reads 206.00 °C; that for `*C(F)(F)C1(*)OC(F)(C(F)(F)F)C(F)(C(F)(F)F)O1` (repeat unit), 165.00 °C.
In turn, `*C(OC(F)(F)F)C(*)(F)F` (repeat unit) had a glass transition temperature of -10.00 °C.
The result for `*C([2H])([2H])C(*)([2H])C([2H])=C([2H])[2H]` (repeat unit) reads 1.00 °C; that for `*C([2H])([2H])C(*)([2H])c1c([2H])c([2H])c([2H])c([2H])c1[2H]` (repeat unit), 97.00 °C; that for `*C/C=C(\C)C(C)S(*)(=O)=O` (repeat unit), 73.00 °C.
`*C/C=C(\C)CS(*)(=O)=O` (repeat unit): the glass transition temperature was found to be 88.20 °C.
The figure for `*C1(F)OC(C(F)(F)F)(C(F)(F)Cl)OC1(*)F` (repeat unit) is 330.00 °C; for `*C1=C(c2ccc(-c3ccc4c(c3)C(CCCCCC)(CCCCCC)c3cc(-c5ccc(*)cc5)ccc3-4)cc2)C(=O)N(CCCCCCCCCCCC)C1=O` (repeat unit) it is 100.00 °C.
The figure for `*C1C(*)C2CC1C1C=CCC12` (repeat unit) is 145.00 °C; for `*C1C(=O)N(CCCCCCCOc2ccc(-c3ccc(C#N)cc3)cc2)C(=O)C1*` (repeat unit) it is 61.00 °C.
On to `*C1C(=O)N(CCCCCCOc2ccc(-c3ccc(C#N)cc3)cc2)C(=O)C1*` (repeat unit), for which the glass transition temperature turned out to be 76.00 °C.
The compound `*C1C(=O)N(CCCCOc2ccc(-c3ccc(C#N)cc3)cc2)C(=O)C1*` (repeat unit) came in with a glass transition temperature of 115.00 °C.
Take `*C1C(=O)N(c2ccc(O[Si](CC)(CC)CC)cc2)C(=O)C1*` (repeat unit): the glass transition temperature was 165.00 °C.
The figure for `*C1C(=O)N(c2ccccc2C)C(=O)C1*` (repeat unit) is 335.00 °C; for `*C1C(=O)OC(=O)C1C1C2CC(C(=O)OC3CCCCC3)C(C2)C1*` (repeat unit) it is 195.00 °C; for `*C1C(=O)OC(=O)C1C1C2CC(C(=O)OCCOCC)C(C2)C1*` (repeat unit) it is 155.00 °C.
The result for `*C1C2CC(C(=O)OCCc3ccc(N(c4ccccc4)c4ccccc4)cc3)C(C2)C1*` (repeat unit) reads 307.00 °C.
The figure for `*C1C2CC(CCCCc3ccccc3)C(C2)C1*` (repeat unit) is 148.00 °C.
The compound `*C1CC(*)(C#N)C1` (repeat unit) gave a glass transition temperature of 220.00 °C.
In the case of `*C1CC2CC1C(*)C2CCCC` (repeat unit), the glass transition temperature amounted to 235.00 °C.
The figure for `*C1CC2CC1C(*)C2CCCCCC` (repeat unit) is 252.00 °C.
In the case of `*CC(C#N)C(CCC(C)(O)C=C)C(*)(C)C` (repeat unit), the glass transition temperature turned out to be 50.00 °C.
The result for `*CC(OC1CCCCC1)C1C(=O)OC(=O)C1*` (repeat unit) reads 201.00 °C; that for `*CC(c1ccccn1)C(c1ccccc1)C(*)c1ccccn1` (repeat unit), 150.00 °C.
As to `*CC/C=C(/*)CCCCCCCCCC` (repeat unit), the glass transition temperature is -53.00 °C.
Compound `*CCC/C=C(/*)c1ccccc1` (repeat unit) displayed a glass transition temperature of 0.00 °C.
The figure for `*Oc1ccc(-c2ccc(Oc3ccc(C(=O)c4cccc5cccc(C(=O)c6ccc(*)cc6)c45)cc3)cc2)cc1` (repeat unit) is 226.50 °C; for `*Oc1ccc(-c2ccc(Oc3ccc(C(=O)c4ccccc4-c4ccccc4C(=O)c4ccc(*)cc4)cc3)cc2)cc1` (repeat unit) it is 193.00 °C.
The figure for `*Oc1ccc(C(c2ccc(Oc3ccc(C(=O)c4cccc5cccc(C(=O)c6ccc(*)cc6)c45)cc3)cc2)(C(F)(F)F)C(F)(F)F)cc1` (repeat unit) is 213.00 °C; for `*Oc1ccc(C(c2ccc(Oc3ccc(C(=O)c4ccccc4-c4ccccc4C(=O)c4ccc(*)cc4)cc3)cc2)(C(F)(F)F)C(F)(F)F)cc1` (repeat unit) it is 178.50 °C.
Consider `*c1cc(CCCCCCCCCC)c(*)s1` (repeat unit), for which the glass transition temperature is -30.00 ± 4.2 °C.
`*c1ccc(*)s1` (repeat unit) yielded a glass transition temperature of 152.17 ± 89 °C.
The figure for `*c1ccc(-c2ccc(-n3c(=O)c4cc5c(=O)n(*)c(=O)c5cc4c3=O)cc2C)c(C)c1` (repeat unit) is 369.2 ± 6.7 °C; for `*c1ccc(N2C(=O)c3ccc(Oc4ccc5c(c4)C(=O)N(*)C5=O)cc3C2=O)cc1` (repeat unit) it is 355.8 ± 42 °C; for `*c1ccc(Oc2ccc(C(C)(C)c3ccc(Oc4ccc(N5C(=O)c6ccc(-c7ccc8c(c7)C(=O)N(*)C8=O)cc6C5=O)cc4)cc3)cc2)cc1` (repeat unit) it is 237.50 ± 15 °C.
For `*c1ccc(Oc2ccc(N3C(=O)c4ccc(Oc5ccc(Oc6ccc7c(c6)C(=O)N(*)C7=O)cc5)cc4C3=O)cc2)cc1` (repeat unit), the glass transition temperature is 241.00 ± 12 °C.
`*c1ccc(Oc2ccc(N3C(=O)c4cccc(Oc5ccc(Oc6cccc7c6C(=O)N(*)C7=O)cc5)c4C3=O)cc2)cc1` (repeat unit) showed a glass transition temperature of 254.00 ± 15 °C.
The figure for `*c1ccc(Oc2ccc(Oc3ccc(N4C(=O)c5ccc(Oc6ccc7c(c6)C(=O)N(*)C7=O)cc5C4=O)cc3)cc2)cc1` (repeat unit) is 247.50 ± 6.6 °C; for `*c1ccc(Oc2ccc(Oc3ccc(Oc4ccc(N5C(=O)C6CCC(C7CCC8C(=O)N(*)C(=O)C8C7)CC6C5=O)cc4)cc3)cc2)cc1` (repeat unit) it is 217.00 °C.
The figure for `*c1ccc(Oc2cccc(N3C(=O)c4ccc(Oc5ccc6c(c5)C(=O)N(*)C6=O)cc4C3=O)c2)cc1` (repeat unit) is 232.00 ± 18 °C; for `*c1ccc(Oc2cccc(Oc3ccc(N4C(=O)c5ccc(-c6cccc7c6C(=O)N(*)C7=O)cc5C4=O)cc3)c2)cc1` (repeat unit) it is 248.00 ± 25 °C.
Turning to `*c1ccc2c(c1)C(=O)N(c1cc(C)c(N3C(=O)c4ccc(C(*)(C(F)(F)F)C(F)(F)F)cc4C3=O)cc1C)C2=O` (repeat unit), the glass transition temperature came out at 367.00 ± 17 °C.
As to `*c1ccc2c(c1)C(=O)N(c1ccc(Oc3ccc(N4C(=O)c5ccc(C(*)(C(F)(F)F)C(F)(F)F)cc5C4=O)cc3)cc1)C2=O` (repeat unit), the glass transition temperature is 295.50 ± 11 °C.
The result for `*c1ccc2c(c1)C(=O)N(c1ccc(Oc3cccc(Oc4ccc(N5C(=O)c6ccc(C(*)(C(F)(F)F)C(F)(F)F)cc6C5=O)cc4)c3)cc1)C2=O` (repeat unit) reads 241.50 ± 18 °C; that for `*c1ccc2c(c1)C(=O)N(c1cccc(S(=O)(=O)c3cccc(N4C(=O)c5ccc(C(*)(C(F)(F)F)C(F)(F)F)cc5C4=O)c3)c1)C2=O` (repeat unit), 275.00 ± 5.7 °C; that for `*c1ccc2c(c1)C(CCCCCC)(CCCCCC)c1cc(*)ccc1-2` (repeat unit), 102.50 ± 2.1 °C.
The result for `*c1cccc(N2C(=O)c3ccc(-c4ccc5c(c4)C(=O)N(*)C5=O)cc3C2=O)c1` (repeat unit) reads 333.2 ± 39 °C; that for `*c1cccc(N2C(=O)c3ccc(Oc4ccc5c(c4)C(=O)N(*)C5=O)cc3C2=O)c1` (repeat unit), 270.50 ± 13 °C; that for `*c1cccc(Oc2ccc(C(c3ccc(Oc4cccc(-n5c(=O)c6cc7c(=O)n(*)c(=O)c7cc6c5=O)c4)cc3)(C(F)(F)F)C(F)(F)F)cc2)c1` (repeat unit), 226.50 ± 12 °C.
`*c1cccc(Oc2cccc(N3C(=O)c4ccc(Oc5ccc6c(c5)C(=O)N(*)C6=O)cc4C3=O)c2)c1` (repeat unit) returned a glass transition temperature of 206.00 ± 1.4 °C.
The result for `*c1cccc(Oc2cccc(Oc3cccc(N4C(=O)c5ccc(-c6ccc7c(c6)C(=O)N(*)C7=O)cc5C4=O)c3)c2)c1` (repeat unit) reads 205.00 ± 3 °C; that for `*c1nc(-c2ccccc2)nc(N(CCCCCCCCCCN(*)c2ccccc2)c2ccccc2)n1` (repeat unit), 62.00 °C; that for `*c1nc(-c2ccccc2)nc(N(CCCCN(*)c2ccccc2)c2ccccc2)n1` (repeat unit), 94.00 °C.
Compound `*c1nc(-c2ccccc2)nc(N(c2ccccc2)c2ncnc(N(*)c3ccccc3)n2)n1` (repeat unit) gave a glass transition temperature of 279.00 °C.
The result for `*c1nc(C(F)(F)C(F)(F)C(F)(F)F)nc(C(F)(F)C(F)(F)C(F)(F)C(F)(F)C(F)(F)C(*)(F)F)n1` (repeat unit) reads -5.00 °C; that for `*c1nnc(-c2cc(CCCCCCCCCC)c(-c3sc(-c4nnc(-c5cc(OCCCCCCCC)c(*)cc5OCCCCCCCC)o4)cc3CCCCCCCCCC)s2)o1` (repeat unit), 53.80 °C.
